Laboratory results taken from ChEMBL document CHEMBL4033705, “Screening for bioactive natural products from a 67-compound library of Glycyrrhiza inflata” (Bioorg Med Chem, 2017).

Tests used:
SW480 = experiment: Growth inhibition of human SW480 cells at 10 uM after 24 hrs by MTS assay relative to control; type: functional; conditions: SW480, 24 h, read-out: GI
MCF7 = experiment: Growth inhibition of human MCF7 cells at 10 uM after 24 hrs by MTS assay relative to control; type: functional; conditions: MCF7, 24 h, read-out: GI
[1] = molecular target: Mushroom tyrosinase (Agaricus bisporus) (UniProt O42713+Q00024+C7FF04+C7FF05); experiment: Inhibition of mushroom tyrosinase at 10 uM using L-tyrosine as substrate incubated for 15 mins followed by substrate addition relative to control
HepG2 = experiment: Growth inhibition of human HepG2 cells at 10 uM after 24 hrs by MTS assay relative to control; type: functional; conditions: HepG2, 24 h, read-out: GI
Homo sapiens = species: Homo sapiens; experiment: Inhibition of LPS-induced NF-kappaB transcription (unknown origin) expressed in human SW480 cells at 10 uM by luciferase reporter gene assay; type: cell-based
[2] = molecular target: T1, Tyrosine-protein phosphatase non-receptor type 1 (Homo sapiens) (UniProt P18031); experiment: Inhibition of recombinant human PTP1B using p-nitrophenyl phosphate as substrate at 10 uM after 30 mins relative to control
T1 sequence (whole entry): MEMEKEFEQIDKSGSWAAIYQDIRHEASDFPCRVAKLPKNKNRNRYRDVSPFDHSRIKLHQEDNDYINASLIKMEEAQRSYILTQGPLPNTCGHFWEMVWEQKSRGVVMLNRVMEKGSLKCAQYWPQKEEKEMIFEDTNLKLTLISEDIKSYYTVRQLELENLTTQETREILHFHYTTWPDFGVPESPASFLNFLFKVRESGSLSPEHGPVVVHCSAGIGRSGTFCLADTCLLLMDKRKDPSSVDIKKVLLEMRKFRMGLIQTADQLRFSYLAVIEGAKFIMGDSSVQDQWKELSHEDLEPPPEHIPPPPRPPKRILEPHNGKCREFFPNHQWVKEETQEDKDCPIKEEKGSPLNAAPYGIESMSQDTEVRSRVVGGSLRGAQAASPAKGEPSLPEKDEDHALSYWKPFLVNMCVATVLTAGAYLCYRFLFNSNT

RAW264.7 = experiment: Antiinflammatory activity in mouse RAW264.7 cells assessed as inhibition of LPS-induced NO production at 10 uM after 24 hrs by Griess reagent based assay relative to control; type: functional; conditions: RAW264.7, 24 h

| SMILES | inhibition of growth at 10 µM (SW480) | inhibition of growth at 10 µM (MCF7) | inhibition [1] | inhibition of growth at 10 µM (HepG2) | inhibition (Homo sapiens) | inhibition [2] | inhibition at 10 µM (RAW264.7) |
| --- | --- | --- | --- | --- | --- | --- | --- |
| CC(C)=CCc1cc2c(=O)cc(-c3ccc(O)cc3)oc2cc1O [LICOFLAVANONE A] | 30% | 0% | 17% | 5% | 7% | 79% | 11% |
| CC1(C)C=Cc2cc(-c3coc4cc(O)cc(O)c4c3=O)ccc2O1 | 13 to 70% | 2 to 23% | 14% | 11% | 27% | 27% | 10% |
| COc1cc(O)c(-c2coc3cc(O)ccc3c2=O)c(OC)c1CC=C(C)C | 0% | 33% | 15% | 0% | 3% | 18% | 14% |
| CC(C)=CCc1c(O)cc(O)c2c(=O)c(-c3ccc(O)cc3O)coc12 | 13% | 31% | 17% | 5% | 8% | 34% | 9% |
| COc1ccc2c(c1)OC[C@H]1c3ccc(O)cc3O[C@@H]21 | 17% | 20% | 31% | 5% | 0% | 2% | 3% |
| COc1c(/C=C/C(=O)c2ccc(O)cc2)ccc(O)c1CC=C(C)C | 25% | 26% | 5% | 22% | 9% | 20% | 1% |
| CC(C)=CCc1cc2c(=O)cc(-c3ccc4c(c3)C=CC(C)(C)O4)oc2cc1O | 51% | 7% | 9% | 11% | 3% | 33% | 1% |
| CC(C)=CCc1cc(-c2coc3cc(O)cc(O)c3c2=O)cc(O)c1O [GLYCYRRHISOFLAVONE] | 18% | 15% | 8% | 0% | 8% | 52% | 3% |
| CC1(C)C=Cc2c(ccc(-c3coc4cc(O)cc(O)c4c3=O)c2O)O1 [LICOISOFLAVONE B] | 13% | 14% | 14% | 13 to 14% | 4% | 69% | 10% |
| CC(C)=CCc1c(O)ccc(-c2cc3ccc(O)cc3o2)c1O [2'-O-DEMETHYLBIDWILLOL B] | 36% | 16% | 12% | 8% | 42% | 24% | 32% |
| O=C1C[C@@H](c2ccc(O)cc2)Oc2cc(O)ccc21 [LIQUIRTIGENIN] | 9% | 27% | 2% | 13% | 19% | 36% | 0% |
| CC(C)=CCc1c(O)ccc(-c2coc3cc(O)c(CC=C(C)C)c(O)c3c2=O)c1O | 46% | 4% | 2% | 0% | 15% | 78% | 0% |
| O=C(/C=C/c1ccc(O)cc1)c1ccc(O)cc1O [ISOLIQUIRITIGENIN] | 16% | 0% | 12% | 0% | 6% | 48% | 14% |
| CC(C)=CCc1cc([C@@H]2CC(=O)c3ccc(O)cc3O2)cc2c1OC(C)(C)C=C2 [ABYSSINONES III] | 26% | 0% | 6% | 9% | 28% | 43% | 17% |
| COc1ccc(-c2coc3cc(O)ccc3c2=O)cc1 [FORMONONETIN] | 4% | 2% | 10% | 0% | 3% | 33% | 0% |
| CC1(C)[C@@H](OC=O)CC[C@]2(C)[C@H]3C(=O)C=C4[C@@H]5C[C@@](C)(C(=O)O)CC[C@]5(C)CC[C@@]4(C)[C@]3(C)CC[C@@H]12 | 3% | 17% | 0% | 13% | 0% | 3% | 2% |
| O=C1C[C@@H](c2ccc(O)cc2)Oc2cc(O)cc(O)c21 [NARINGENIN] | 28% | 21% | 10% | 28% | 22% | 43% | 6% |
| CC(C)=CCc1c(O)cc2occ(-c3ccc(O)cc3)c(=O)c2c1O [WIGHTEONE] | 34% | 17% | 15% | 6% | 11% | 19% | 0% |
| CC(C)=CCc1c(O)ccc(C(=O)/C=C/c2ccc(O)c(O)c2)c1O | 11% | 12% | 14% | 1% | 14% | 16% | 11% |
| CC1(C)C=Cc2c(ccc(-c3coc4cc(O)ccc4c3=O)c2O)O1 [GLABRONE] | 50% | 12% | 3% | 16% | 15% | 69% | 5% |
| COc1cc(O)ccc1/C=C/C(=O)c1ccc(O)cc1 [ECHINATIN] | 24% | 0% | 16% | 6% | 0% | 75% | 26% |
| CC(C)=CCc1cc([C@@H]2CC(=O)c3ccc(O)cc3O2)ccc1O [ABYSSINONE II] | 22% | 25% | 4% | 4% | 0% | 5% | 8% |
| O=c1c(-c2ccc(O)c(O)c2)coc2cc(O)ccc12 | 43% | 0% | 9% | 3% | 0% | 28% | 0% |
| CC1(C)C(=O)CC[C@]2(C)[C@H]3C(=O)C=C4[C@@H]5C[C@@](C)(C(=O)O)CC[C@]5(C)CC[C@@]4(C)[C@]3(C)[C@@H](O)C[C@@H]12 | 48% | 25% | 5% | 1% | 28% | 1% | 6% |
| CC1(C)C=Cc2c(O)ccc([C@@H]3COc4cc(O)cc(O)c4C3=O)c2O1 | 8% | 13% | 9% | 6% | 24% | 1% | 2% |
| COc1ccc(-c2coc3c(O)c(O)c(CC=C(C)C)cc3c2=O)cc1 | 51% | 4% | 7% | 48% | 21% | 74% | 17% |
| O=C1C[C@@H](c2cc(O)cc(O)c2)Oc2cc(O)ccc21 | 4% | 13% | 12% | 0% | 1% | 2% | 15% |
| CC(C)=CCc1c(O)cc(O)c2c(=O)c(-c3ccc(O)cc3)coc12 | 13% | 23% | 16% | 23% | 25% | 0% | 18% |
| CC(C)=CCc1c(O)cc2occ(-c3ccc4c(c3)C=CC(C)(C)O4)c(=O)c2c1O [ISOCHANDALON] | 58 to 81% | 73% | 3% | 7% | 3% | 94% | 0% |
